Data taken from US20110104177A1, “HISTONE DEACETYLASE INHIBITORS, COMBINATION THERAPIES AND METHODS OF USE” (THE JOHNS HOPKINS UNIVERSITY, priority 2006, published 2011).

Assays:
SIRT1 = biological target: T1, SIRT1 (Homo sapiens, UniProt Q96EB6); assay: SIRT1 p53-382 IC50 assay; assay type: biochemical
T1 sequence (Q96EB6 1-747): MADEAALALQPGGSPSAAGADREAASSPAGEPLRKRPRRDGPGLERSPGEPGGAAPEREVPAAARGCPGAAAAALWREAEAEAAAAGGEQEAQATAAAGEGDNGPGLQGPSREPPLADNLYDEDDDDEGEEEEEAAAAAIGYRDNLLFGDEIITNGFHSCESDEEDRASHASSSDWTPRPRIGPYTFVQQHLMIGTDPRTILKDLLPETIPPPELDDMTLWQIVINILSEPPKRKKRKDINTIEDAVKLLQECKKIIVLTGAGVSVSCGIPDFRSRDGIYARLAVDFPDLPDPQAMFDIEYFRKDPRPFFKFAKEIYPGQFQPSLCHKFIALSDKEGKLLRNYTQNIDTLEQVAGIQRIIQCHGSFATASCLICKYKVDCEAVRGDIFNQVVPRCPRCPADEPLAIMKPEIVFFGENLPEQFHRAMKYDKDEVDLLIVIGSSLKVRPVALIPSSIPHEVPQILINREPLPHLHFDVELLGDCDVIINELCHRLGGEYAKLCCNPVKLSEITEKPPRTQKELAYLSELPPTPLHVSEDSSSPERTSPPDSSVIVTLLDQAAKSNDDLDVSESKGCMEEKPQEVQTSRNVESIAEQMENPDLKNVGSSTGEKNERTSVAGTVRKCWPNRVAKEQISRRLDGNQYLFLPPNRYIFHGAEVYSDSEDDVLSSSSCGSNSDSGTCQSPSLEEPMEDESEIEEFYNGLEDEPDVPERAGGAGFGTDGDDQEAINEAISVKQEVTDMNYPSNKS

[1] = system: β-catenin-responsive TCF reporter (Wnt pathway) in RKO cells; assay: β-catenin-responsive TCF reporter assay; assay type: cell-based, human; settings: 700 μM SPT for 24 hours
Description: The panels of FIG. 6. […] Error bars indicate standard deviation from the average of three experiments. FIG. 6(B) provides the results obtained from experiments in which RKO cells were transfected with 500 ng of pGL3-OT, a TCF-LEF-responsive reporter, or pGL3-OF, a negative control with a mutated TCF-LEF binding site in combination with 10 ng of pRL-CMV vector. Twenty-four hours post-transfection, cells were treated with either vehicle (DMSO) control or with 700 μM SPT for 24 hours. Firefly luciferase activity was measured and normalized to the Renilla luciferase activities. The experiments shown in FIG. 6(C) were performed as described in FIG. 6(A), in which pooled populations of MDA-MB-231 cells stably expressing RNAi-2 or RNAi-3 were harvested, protein concentrations were determined, and Western blot analysis was performed. An antibody that specifically recognizes the unphosphorylated (active) form of β-catenin was used, and on the same blot, β-actin was probed to ensure equal loading. […]
Reporter assays were performed as described previously using the β-catenin-responsive TCF reporter and the cyclin D1 reporter. […] According to the manufacturer's instructions, Firefly luciferase activity was measured via a luminometer (BD Biosciences) and normalized to the Renilla luciferase activities by using the Dual Luciferase Reporter System (Promega, Madison, Wis., United States).

[2] = system: cyclin-D1 promoter reporter in RKO cells; assay: β-catenin-responsive cyclin-D1 promoter reporter assay; assay type: cell-based, human; settings: SPT treatment, data not shown
Description: Reporter assays were performed as described previously using the β-catenin-responsive TCF reporter and the cyclin D1 reporter. Briefly, prior to transfection, RKO cells were plated in six-well tissue culture dishes and grown until they reached 80%-90% confluence. Cells were transfected with 500 ng of pGL3-OT, a TCF-LEF-responsive reporter, or pGL3-OF, a negative control with a mutated TCF-LEF binding site in combination with 10 ng of pRL-CMV vector. Twenty-four hours post-transfection, cells were treated with either vehicle (DMSO) control or with 700 μM SPT for 24 hours. According to the manufacturer's instructions, Firefly luciferase activity was measured via a luminometer (BD Biosciences) and normalized to the Renilla luciferase activities by using the Dual Luciferase Reporter System (Promega, Madison, Wis., United States).

[3] = system: SFRP1, SFRP2, E-cadherin, CRBP1 genes in MDA-MB-231 cells; assay: RT-PCR re-expression of silenced tumor suppressor genes in MDA-MB-231 cells; assay type: cell-based, human
Description: The panels of FIG. 2 are as follows. […] MDA-MB-231 cells were treated with 15 mM NIA or 300 μM SPT for 21 hours, RNA was isolated, and RT-PCR was performed with intron-spanning primers specific for the indicated genes. Control samples in which no reverse transcriptase was added were analyzed separately, and all were negative for amplification of the indicated genes. […] MDA-MB-231 cells were treated with either 50 nM Aza (+), 100 μM SPT (+) or with both Aza and SPT (++), and 34 hours later, RT-PCR was performed for the indicated genes as described in FIG. 2(A). […] MDA-MB-231 cells were treated with either 0, 50, 100, or 120 μM SPT alone for 34 hours, or the treatment was followed by treatment with 300 nM TSA for 3 hours prior to RNA isolation and RT-PCR analysis. […] MDA-MB-231 cells were infected with low titers of virus for shRNA specific for SIRT1. Aza (100 nM) was added 24 hours prior to RNA isolation, and RT-PCR analysis was performed for the genes SFRP 1, SFRP2, and GAPDH as described in FIG. 2(A). […] As shown in the left panel, MDA-MB-231 cells were infected with a control (vec) or mutant SIRT1 virus (HY), and RT-PCR was performed as described in FIG. 2(A). MDA-MB-231 cells were infected with low titers of pBabe or pBabe-SIRT1H363Y retrovirus and subsequently treated with 100 nM Aza for 24 hours or with 300 nM TSA for 3 hours prior to harvest, and RT-PCR was performed.
(§1) Cell culture and retroviral infection. MDA-MB-231, MCF7, HCT116, SW480 RKO, and Phoenix cells (ATCC, Rockville, Md., United States) were cultured in Dulbecco's modified Eagle's medium supplemented with 10% fetal bovine serum and 1% penicillin/streptomycin (Invitrogen, Carlsbad, Calif., United States). Retroviral infection was performed using either single or multiple rounds of infection. Briefly, Phoenix cells were transfected with either pBabe, pBabe-SIRT1H363Y, pSUPERretro, pSUPERretro-SIRT1-RNAi-1-3 (NM_012238 positions 410, 589, and 1091; Oligo Engine, Seattle, Wash., United States) using Lipofectamine 2000 (Invitrogen). After 48 h of transfection, the medium containing retrovirus was collected, filtered, and supplemented with Polybrene prior to infection of target cells (MDA-MB-231, MCF7, or HCT116). Infected cells were either harvested 24-48 hours later or subjected to selection with 2-3 μg/ml puromycin for a week prior to harvest and analysis.
(§2) RNA and protein preparation and analysis. Total RNA was extracted (Invitrogen) according to the manufacturer's instructions and subjected to reverse transcription followed by both quantitative real-time and semi-quantitative polymerase chain reaction. For quantitative real-time analyses, the QuantiTect SYBR Green PCR kit (Qiagen, Valencia, Calif., United States) was used and the amplification conditions consisted of an initial 10-minutes denaturation step at 95° C., followed by 40 cycles of denaturation at 95° C. for 15 s and annealing and extension for 30 seconds and 60 seconds, respectively. A BioRad iCycler was used (BioRad, Hercules, Calif., United States), and for quantitation the comparative cycle threshold (Ct) method was used, normalizing the Ct values for the indicated gene to the Ct values of GAPDH relative to a control sample. For conventional PCR, at least two independent sets of intron-spanning primers were used for the analysis of multiple genes, such as CRBP1, (NM_002899), E-cadherin, (L34545), SFRP1, (BC036503), SFRP2, (BC008666), and Gata-4 (L34357). For Western blots, cells stably expressing RNAi constructs were harvested in 50 mM Tris-HCl, 1% NP-40, 0.25% sodium deoxycholate, 150 mM NaCl, 50 mM sodium fluoride, 1 mM dithiothreitol, 1 mM AEBSF, 1× Complete protease inhibitor cocktail (Roche, Basel, Switzerland). Protein concentrations were measured by BCA (Pierce Biotechnology, Rockford, Ill., United States). […] On the same blot, β-actin (Sigma, St. Louis, Mo., United States) was probed to ensure equal loading.

[4] = system: SFRP1 and SFRP2 genes in MCF7 cells; assay: RT-PCR re-expression of silenced tumor suppressor genes in MCF7 cells; assay type: cell-based, human; settings: sirtuin inhibitors, data not shown
Description: as §1, §2

| Structure (SMILES) | IC50 (SIRT1) [µM] | reduction in the activation of a β-catenin-responsive TCF reporter construct [1] [%] | reduction in the activation of a β-catenin-responsive cyclin-D1 promoter reporter construct [2] [%] | re-expression of the gene panel, single agent at low dose ([3]; Aza (50 nM) or SPT (50 μM) alone) | re-expression of epigenetically silenced, hypermethylated TSGs incl. CRBP1 ([3]; MDA-MB-231 cells, 15 mM NIA or 300 μM SPT for 21 hours) | re-expression of epigenetically silenced, hypermethylated TSGs [4] |
| --- | --- | --- | --- | --- | --- | --- |
| O=C(NO)C1CCCc2c1[nH]c1ccc(Cl)cc21 (stereo not drawn) [Compound 7, 6-Chloro-2,3,4,9-tetrahydro-1H-carbazole-1-carboxylic acid hydroxyamide] | > 10 |  |  |  |  |  |
| O=C1CCc2c(ccc3ccccc23)O1 [SPT, splitomicin, reference compound] |  | 50 | 50 | ineffective as single agents | could cause the re-expression | could cause the re-expression |
